The values that follow come from PubChem BioAssay (NCI).

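Values below derive from 48-hour exposures of cells grown in 96-well plates, with endpoints linearly interpolated between the two concentrations bracketing the appropriate inhibition level. At the GI50, growth is halved. TGI marks complete inhibition of growth.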

Among the test systems are SW-620 colon; RPMI-8226 leukemia; OVCAR-3 ovarian; UACC-62 melanoma; HCT-15 colon; HCT-116 colon; NCI/ADR-RES ovarian; MDA-MB-231 breast; NCI-H522 lung; HOP-62 NSCLC.
Holding throughout (assay): inhibition of tumour cell growth, NCI panel, 48 h

For `COc1ccc2c(c1)C(c1cc(OC)c3c(c1)OCO3)C1=C(COC1=O)N2` (stereo not drawn), the GI50 with SW-620 colon is 0.373 µM; with RPMI-8226 leukemia it was 0.461 µM; in the assay on OVCAR-3 ovarian, 0.205 µM; with UACC-62 melanoma, 0.0984 µM; with HCT-15 colon it was 0.472 µM; in the assay with HCT-116 colon it was 0.417 µM. Further, the GI50 with NCI/ADR-RES ovarian is 0.292 µM; with MDA-MB-231 breast it was 0.654 µM; with NCI-H522 lung it was 0.039 µM; with HOP-62 NSCLC, 0.397 µM. The TGI with SW-620 colon was greater than 100 µM; in the assay on RPMI-8226 leukemia, greater than 100 µM; with OVCAR-3 ovarian, 0.481 µM; in the assay with UACC-62 melanoma it was greater than 100 µM; in the assay with HCT-15 colon, greater than 65.1 µM; in the assay with HCT-116 colon, greater than 34.8 µM. The TGI was greater than 39.8 µM in the assay on MDA-MB-231 breast, 0.232 µM in the assay with NCI-H522 lung and greater than 47.5 µM in the assay with HOP-62 NSCLC.
Regarding `COc1ccc2nc3cccc([N+](=O)[O-])c3c(NC(C)CN(C)C)c2c1` (stereo not drawn), the GI50 with SW-620 colon was 1.9 µM; in the assay with RPMI-8226 leukemia, 1.78 µM; in the assay on OVCAR-3 ovarian, 3.15 µM; with UACC-62 melanoma, 1.46 µM; in the assay on HCT-15 colon it was 3.71 µM; with HCT-116 colon, 1.44 µM. The GI50 is 2.92 µM in the assay on NCI/ADR-RES ovarian, 2.23 µM in the assay on MDA-MB-231 breast, 0.69 µM in the assay on NCI-H522 lung and 1.18 µM in the assay with HOP-62 NSCLC. Besides, the TGI with SW-620 colon was determined as 12.5 µM; with RPMI-8226 leukemia, 6 µM; with OVCAR-3 ovarian it was 10.4 µM; with UACC-62 melanoma, 3.05 µM; with HCT-116 colon, 7.49 µM; with NCI/ADR-RES ovarian, 13 µM. Further, the TGI amounted to 10.6 µM in the assay on MDA-MB-231 breast, 2.18 µM in the assay on NCI-H522 lung and 2.96 µM in the assay with HOP-62 NSCLC.
As to `C=CC(=O)N1CC[C@H](n2nc(C#Cc3cc(OC)cc(OC)c3)c3c(N)ncnc32)C1`, the GI50 is 15 µM in the assay with SW-620 colon; 2.45 µM in the assay on RPMI-8226 leukemia; 4.13 µM in the assay with OVCAR-3 ovarian; 6.95 µM with UACC-62 melanoma; 5.53 µM in the assay with HCT-15 colon; 6.04 µM with HCT-116 colon. Further, the GI50 with NCI/ADR-RES ovarian is 12.7 µM; with MDA-MB-231 breast, 4.07 µM; in the assay on NCI-H522 lung, 7.56 µM; with HOP-62 NSCLC, 5.43 µM. Besides, the TGI with SW-620 colon is greater than 100 µM; in the assay on RPMI-8226 leukemia, 33.3 µM; with OVCAR-3 ovarian, greater than 100 µM; in the assay on UACC-62 melanoma it was greater than 100 µM; with HCT-15 colon, greater than 100 µM; with HCT-116 colon, greater than 100 µM. Also, the TGI is greater than 100 µM with NCI/ADR-RES ovarian, greater than 100 µM in the assay on MDA-MB-231 breast, 37.9 µM in the assay on NCI-H522 lung and greater than 100 µM in the assay with HOP-62 NSCLC.
Take `C=C1C(=O)C2=CC1CCC(=O)C1(C)CCC(OC(C)=O)C(C)(C)C1CC2O` (stereo not drawn): the TGI in the assay with SW-620 colon is greater than 100 µM; in the assay on RPMI-8226 leukemia, greater than 100 µM; with OVCAR-3 ovarian, 15.8 µM; with UACC-62 melanoma, 5.96 µM; in the assay on HCT-15 colon, 2.6 µM; with HCT-116 colon, greater than 21.2 µM. Further, the TGI in the assay on NCI/ADR-RES ovarian was 24.9 µM; with MDA-MB-231 breast it was 18 µM; in the assay with NCI-H522 lung, 2.19 µM; with HOP-62 NSCLC, 22.8 µM.
For `C=CCOC(=O)Nc1cccn([C@H](CC(C)C)C(=O)NCCC(C)C)c1=O`, the GI50 is greater than 100 µM in the assay with SW-620 colon; 22.7 µM in the assay with RPMI-8226 leukemia; 54.5 µM with OVCAR-3 ovarian; greater than 100 µM in the assay with UACC-62 melanoma; 84.5 µM with HCT-15 colon; 49.6 µM in the assay with HCT-116 colon. The GI50 is 57.9 µM with NCI/ADR-RES ovarian, 21.1 µM with MDA-MB-231 breast, 63.8 µM in the assay on NCI-H522 lung and greater than 100 µM with HOP-62 NSCLC. Also, the TGI with SW-620 colon, with RPMI-8226 leukemia, in the assay on OVCAR-3 ovarian, with UACC-62 melanoma, in the assay with HCT-15 colon and in the assay on HCT-116 colon was greater than 100 µM in each case. The TGI with NCI/ADR-RES ovarian was greater than 100 µM; in the assay on MDA-MB-231 breast, 67.2 µM; in the assay on NCI-H522 lung it was greater than 100 µM; in the assay on HOP-62 NSCLC, greater than 100 µM.
Regarding `Nc1nn(C(=O)Nc2c(F)cccc2F)c2ccccc12`, the GI50 in the assay on SW-620 colon is 38.3 µM; with RPMI-8226 leukemia, 16.1 µM; in the assay with OVCAR-3 ovarian, 65.7 µM; in the assay with UACC-62 melanoma it was 43.9 µM; in the assay with HCT-15 colon it was 40.9 µM; in the assay on HCT-116 colon, 34.8 µM. The GI50 was 56.5 µM in the assay with NCI/ADR-RES ovarian, 98.7 µM in the assay on MDA-MB-231 breast, 55.1 µM with NCI-H522 lung and 51 µM in the assay on HOP-62 NSCLC. Also, the TGI in the assay with SW-620 colon, with RPMI-8226 leukemia, in the assay on OVCAR-3 ovarian, with UACC-62 melanoma, with HCT-15 colon and in the assay with HCT-116 colon was greater than 100 µM in each case. For the same compound, the TGI in the assay with NCI/ADR-RES ovarian, with MDA-MB-231 breast, in the assay on NCI-H522 lung and with HOP-62 NSCLC was greater than 100 µM each time.
Turning to `CCCN(CCC)c1ccc(C=O)c(C)c1`, the GI50 with SW-620 colon is 45.9 µM; in the assay on RPMI-8226 leukemia, 69.4 µM; in the assay on OVCAR-3 ovarian, 35.4 µM; with UACC-62 melanoma it was 28.4 µM; with HCT-15 colon, 41.6 µM; with HCT-116 colon, 35 µM. Further, the GI50 with NCI/ADR-RES ovarian is 36.1 µM; in the assay with MDA-MB-231 breast, 41.3 µM; in the assay on NCI-H522 lung, 37.4 µM; in the assay on HOP-62 NSCLC, 98.1 µM. The TGI in the assay on SW-620 colon, in the assay on RPMI-8226 leukemia, with OVCAR-3 ovarian, in the assay on UACC-62 melanoma, in the assay on HCT-15 colon and in the assay with HCT-116 colon was greater than 100 µM throughout. Moreover, the TGI in the assay on NCI/ADR-RES ovarian, with MDA-MB-231 breast, in the assay on NCI-H522 lung and with HOP-62 NSCLC was greater than 100 µM each time.
Regarding `CN(C)CCNC(=O)c1ccc2oc3cc4ccccc4c(=O)n3c2c1`, the GI50 in the assay with SW-620 colon was 28.6 µM; in the assay on RPMI-8226 leukemia, 51.2 µM; with OVCAR-3 ovarian, 15.4 µM; with UACC-62 melanoma, 48.4 µM; with HCT-15 colon, 28.2 µM; in the assay with HCT-116 colon, 41.6 µM. Further, the GI50 is 37.4 µM in the assay with NCI/ADR-RES ovarian, 31.8 µM in the assay on MDA-MB-231 breast, 18.1 µM in the assay with NCI-H522 lung and greater than 100 µM in the assay with HOP-62 NSCLC. The TGI in the assay with SW-620 colon was greater than 100 µM; in the assay on RPMI-8226 leukemia it was greater than 100 µM; with OVCAR-3 ovarian it was 52.6 µM; in the assay with UACC-62 melanoma, greater than 100 µM; in the assay with HCT-15 colon it was greater than 100 µM; in the assay on HCT-116 colon, greater than 100 µM. The TGI was greater than 100 µM in the assay with NCI/ADR-RES ovarian, greater than 100 µM with MDA-MB-231 breast, 39.8 µM in the assay on NCI-H522 lung and greater than 100 µM in the assay with HOP-62 NSCLC.
